Measured values taken from ChEMBL document CHEMBL1201862, “PubChem BioAssay data set” (2004).
Calls of active or inactive are those of the source.

How the values were obtained:
[1] = microbe, parasite or virus in culture; type: functional; conditions: Mycobacterium tuberculosis
[2] = blockers of HIV-1 envelope-mediated cell-cell fusion – cherry-pick, dose response (AID 652057); type: functional, cell-based
[3] = molecular target: Luciferin 4-monooxygenase (Photinus pyralis, UniProt P08659); test: inhibition of purified Photinus pyralis luciferase – biochemical, luminescence, dose response (AID 1891)
Sequence of Luciferin 4-monooxygenase (P08659 whole entry): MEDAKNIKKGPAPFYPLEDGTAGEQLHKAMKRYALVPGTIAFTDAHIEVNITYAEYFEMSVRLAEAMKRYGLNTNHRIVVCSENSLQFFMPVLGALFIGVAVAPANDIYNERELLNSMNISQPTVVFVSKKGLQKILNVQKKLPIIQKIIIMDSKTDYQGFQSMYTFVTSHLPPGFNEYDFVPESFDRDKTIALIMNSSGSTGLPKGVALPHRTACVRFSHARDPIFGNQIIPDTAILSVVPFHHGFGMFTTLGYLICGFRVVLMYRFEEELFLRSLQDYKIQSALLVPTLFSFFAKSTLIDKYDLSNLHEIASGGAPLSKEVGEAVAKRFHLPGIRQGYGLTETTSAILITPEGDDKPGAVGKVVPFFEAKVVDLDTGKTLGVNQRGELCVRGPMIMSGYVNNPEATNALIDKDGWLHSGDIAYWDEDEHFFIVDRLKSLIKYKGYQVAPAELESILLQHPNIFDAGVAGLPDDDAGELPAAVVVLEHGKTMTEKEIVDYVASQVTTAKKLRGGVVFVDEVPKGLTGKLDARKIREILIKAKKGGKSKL

[4] = Luminescence Cell-Based Dose Confirmation HTS to Identify Inhibitors of Platelet Dense Granule Release. [Related pubchem assays: 1663 (Primary HTS), 1678 (Summary of Project)]; type: functional
[5] = Luminescence Cell-Based Dose Confirmation HTS to Identify Activators of 5'UTR Stem-Loop Driven Alpha-Synuclein mRNA Translation in H4 Neuroglioblastoma Cells. [Related pubchem assays: 1829 (Project Summary), 1814 (Primary HTS)]; type: functional
[6] = Luminescence Cell-Based Dose Response HTS to Identify Activators of Luciferase Translation or Activity in H4 […] Cells. [Related pubchem assays: 1829 (Project Summary), 1814 (Primary HTS)]; type: functional
[7] = test system: H4; test: Luminescence Cell-Based Dose Response HTS to Identify Activators of 5'UTR Stem-Loop Driven Prion Protein mRNA Translation in H4 Neuroglioblastoma Cells. [Related pubchem assays: 1829 (Project Summary), 1814 (Primary HTS)]; type: functional; conditions: Homo sapiens
[8] = molecular target: T1, Ubiquitin-conjugating enzyme E2 N (Homo sapiens, UniProt P61088); type: functional;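 also: Dose-response confirmation in a TR-FRET assay detecting UBC13-driven polyubiquitin chain formation, inhibition measured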
T1 sequence (P61088 whole entry): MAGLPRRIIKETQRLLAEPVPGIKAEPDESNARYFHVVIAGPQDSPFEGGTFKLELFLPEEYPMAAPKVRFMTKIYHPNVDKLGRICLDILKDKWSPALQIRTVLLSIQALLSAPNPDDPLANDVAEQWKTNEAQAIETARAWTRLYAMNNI

[9] = HIV-1 AD8 envelope cell-cell fusion blockers – cherry-pick, dose response (AID 652062); type: functional, cell-based;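 also: luciferase signal from cell-cell fusion driven by HIV-1 clade B AD8 Env; potency is for inhibitors of fusion seen as a drop in luminescence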
[10] = P. falciparum Dd2 growth inhibitors, dose response, SYBR Green, cherry-picked samples (AID 1159567); type: functional, cell-based
[11] = reduction of Shn3 3'UTR-driven luciferase in osteoblasts – cell-based, Clone20 osteoblasts, firefly luciferase, cherry-picked, dose response (AID 624132); type: functional;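 also: firefly luciferase luminescence from reporter carrying the Shn3 3'UTR in osteoblasts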
[12] = non-specific 3'UTR reporter inhibition in Clone20-Shn3RL – cell-based, Renilla luciferase, cherry-picked, counter-screen for Shn3 inhibitor project, dose response (AID 624133); type: functional
[13] = test system: INS1; test: INS-1E survival protection against cytokine death – cell-based, luminescence, retest, dose response (AID 449756); type: functional; conditions: Rattus norvegicus;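 also: cell death triggered by IL-1 beta plus TNF-alpha plus IFN-gamma mixture; protective hits raise ATP signal compared with cytokine alone wells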
[14] = molecular target: T2, Polyadenylate-binding protein 1 (Homo sapiens, UniProt P11940); test: MLLE binding blockers, Cy5 peptide tracer – biochemical, fluorescence polarization, Cy5-PAM2 peptide, secondary, miRNA deadenylation inhibitor project, dose response (AID 602260); type: functional; conditions: read-out: IC50_Mean
T2 sequence (P11940 whole entry, the tested form may be a part): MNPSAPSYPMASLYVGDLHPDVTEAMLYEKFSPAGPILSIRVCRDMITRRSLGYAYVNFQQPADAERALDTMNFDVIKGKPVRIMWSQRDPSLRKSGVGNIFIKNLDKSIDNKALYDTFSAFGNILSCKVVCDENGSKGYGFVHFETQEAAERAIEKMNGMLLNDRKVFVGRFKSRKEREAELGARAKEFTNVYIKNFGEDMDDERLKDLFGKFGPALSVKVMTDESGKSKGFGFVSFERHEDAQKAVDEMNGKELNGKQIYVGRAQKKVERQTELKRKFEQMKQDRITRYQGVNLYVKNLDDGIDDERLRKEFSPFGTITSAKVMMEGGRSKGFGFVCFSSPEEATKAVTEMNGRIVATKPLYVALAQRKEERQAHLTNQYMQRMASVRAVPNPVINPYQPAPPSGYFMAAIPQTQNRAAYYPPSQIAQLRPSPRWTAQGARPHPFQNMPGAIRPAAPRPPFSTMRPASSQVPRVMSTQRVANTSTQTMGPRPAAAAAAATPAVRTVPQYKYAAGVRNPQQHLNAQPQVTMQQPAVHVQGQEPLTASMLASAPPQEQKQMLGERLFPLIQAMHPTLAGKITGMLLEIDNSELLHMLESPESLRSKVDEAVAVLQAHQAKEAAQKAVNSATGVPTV

[15] = molecular target: T2, Polyadenylate-binding protein 1; test: MLLE domain peptide-binding blockers, IC50 – biochemical, fluorescence polarization, FITC-PAM2 peptide, dose response (AID 602259); type: functional; conditions: read-out: IC50_Mean
[16] = molecular target: T3, DNA repair and recombination protein RAD54-like (Homo sapiens, UniProt Q92698); test: RAD54 Holliday junction migration blockers – biochemical, fluorescence, cherry-picked samples, dose series, confirmation (AID 651657); type: functional
T3 sequence (Q92698 whole entry): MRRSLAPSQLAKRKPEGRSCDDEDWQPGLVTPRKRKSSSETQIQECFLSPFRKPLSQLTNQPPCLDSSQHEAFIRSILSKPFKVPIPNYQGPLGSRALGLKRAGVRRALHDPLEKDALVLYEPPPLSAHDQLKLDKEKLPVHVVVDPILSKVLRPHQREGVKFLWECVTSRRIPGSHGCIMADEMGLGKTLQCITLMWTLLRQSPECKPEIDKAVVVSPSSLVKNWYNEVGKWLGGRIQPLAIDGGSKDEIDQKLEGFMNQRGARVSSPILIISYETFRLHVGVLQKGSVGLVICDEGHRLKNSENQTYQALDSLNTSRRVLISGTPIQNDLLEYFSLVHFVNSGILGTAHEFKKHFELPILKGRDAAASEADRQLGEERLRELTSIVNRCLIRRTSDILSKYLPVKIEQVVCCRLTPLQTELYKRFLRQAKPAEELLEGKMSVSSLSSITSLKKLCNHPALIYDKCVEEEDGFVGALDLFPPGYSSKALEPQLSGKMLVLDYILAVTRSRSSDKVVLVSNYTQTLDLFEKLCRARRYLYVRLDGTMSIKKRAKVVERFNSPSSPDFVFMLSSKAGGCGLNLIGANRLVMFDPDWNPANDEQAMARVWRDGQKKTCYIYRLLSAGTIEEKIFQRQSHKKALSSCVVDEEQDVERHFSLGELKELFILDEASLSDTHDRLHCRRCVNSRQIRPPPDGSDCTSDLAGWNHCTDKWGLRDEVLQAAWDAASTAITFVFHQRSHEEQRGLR

[17] = test system: BJ; test: BJ-TERT fibroblast viability loss – cell-based, RAS-independent, luminescence, dose response (AID 1933); type: functional; conditions: Homo sapiens
[18] = test system: BJ; test: cells; type: functional, cell-based; conditions: Homo sapiens
[19] = test system: BJ; test: BJ-TERT-LT-ST fibroblast viability loss – cell-based, RAS-independent, luminescence, dose response (AID 1935); type: functional; conditions: Homo sapiens;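 also: BJ fibroblasts immortalized with TERT plus LT and ST oncogenes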
[20] = DRD fibroblast viability loss – cell-based, non-viral oncogenic, luminescence, dose response (AID 1934); type: functional; conditions: Homo sapiens
[21] = molecular target: Cytochrome P450 2D6 (Homo sapiens, UniProt P10635);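 also: CYP2D6 member of a cytochrome P450 panel assay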
Sequence of Cytochrome P450 2D6 (P10635 whole entry): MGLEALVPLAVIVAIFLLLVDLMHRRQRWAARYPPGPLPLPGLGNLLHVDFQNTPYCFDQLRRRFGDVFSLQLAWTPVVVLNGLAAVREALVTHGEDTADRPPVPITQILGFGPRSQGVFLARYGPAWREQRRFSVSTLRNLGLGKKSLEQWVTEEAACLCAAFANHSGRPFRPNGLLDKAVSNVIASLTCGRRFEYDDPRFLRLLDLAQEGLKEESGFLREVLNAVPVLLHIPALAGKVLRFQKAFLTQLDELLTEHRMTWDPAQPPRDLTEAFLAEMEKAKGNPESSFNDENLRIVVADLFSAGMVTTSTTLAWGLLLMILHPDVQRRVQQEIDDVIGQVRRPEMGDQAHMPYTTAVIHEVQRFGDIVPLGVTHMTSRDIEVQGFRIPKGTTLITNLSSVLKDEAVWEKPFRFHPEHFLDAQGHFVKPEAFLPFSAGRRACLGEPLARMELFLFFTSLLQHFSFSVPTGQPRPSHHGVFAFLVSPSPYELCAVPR

[22] = molecular target: T4, Cytochrome P450 1A2 (Homo sapiens, UniProt P05177);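 also: PubChem cytochrome P450 panel assay, CYP1A2 panel member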
T4 sequence (P05177 whole entry): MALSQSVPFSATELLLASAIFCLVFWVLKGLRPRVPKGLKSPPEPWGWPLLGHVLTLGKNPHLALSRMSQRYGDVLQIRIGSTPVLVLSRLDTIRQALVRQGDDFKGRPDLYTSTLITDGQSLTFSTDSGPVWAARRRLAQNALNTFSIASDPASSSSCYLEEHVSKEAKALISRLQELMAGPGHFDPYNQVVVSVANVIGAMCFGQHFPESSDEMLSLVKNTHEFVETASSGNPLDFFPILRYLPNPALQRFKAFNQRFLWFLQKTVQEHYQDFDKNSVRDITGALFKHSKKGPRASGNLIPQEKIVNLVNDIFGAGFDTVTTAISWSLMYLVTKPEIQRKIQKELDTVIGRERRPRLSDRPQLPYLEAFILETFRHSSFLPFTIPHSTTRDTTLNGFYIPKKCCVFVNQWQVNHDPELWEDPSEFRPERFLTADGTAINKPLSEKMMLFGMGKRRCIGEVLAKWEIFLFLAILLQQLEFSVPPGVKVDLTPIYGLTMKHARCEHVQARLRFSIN

[23] = Luminescence Cell-Based Dose Retest to Confirm Inhibitors of Cancer Stem Cells. [Related pubchem assays (depositor defined):AID2717, AID2721]; type: functional; conditions: Homo sapiens
[24] = luciferase reporter signal suppression in cells – H4 neuroglioma cells, luminescence, dose response (AID 1990); type: functional, cell-based
[25] = Luminescence Cell-Based Dose Response HTS to Identify Inhibitors of 5'UTR Stem-Loop Driven Prion Protein mRNA Translation in H4 Neuroglioblastoma Cells. [Related pubchem assays: 1827 (Project Summary), 1813 (Primary HTS)]; type: functional
[26] = alpha-synuclein stem-loop luciferase translation blockers – H4 neuroglioma cells, luminescence, confirmation (AID 1988); type: functional, cell-based

COc1ccc(Cl)cc1C(=O)O/N=C(\N)c1ccccn1
CC50 [1]: > 40 µM (active)

C[C@H]1CN([C@@H](C)CO)C(=O)c2cc(NS(C)(=O)=O)ccc2O[C@@H]1CN(C)Cc1ccc(Cl)c(Cl)c1
AC50 [2]: 48.9 µM (active)

Cc1cccc2cc(CN(CC(C)C)S(=O)(=O)c3ccccc3)c(O)nc12
EC50 [3]: > 112 µM (not active) | EC50 [4]: > 112 µM (not active)

CC1(C)SC(=S)N(NC(=O)Nc2cccc3ccccc23)C1N(O)C(=O)Nc1ccccc1 (stereo unspecified)
EC50 [5]: > 120 µM (not active) | EC50 [6]: > 60 µM (not active) | EC50 [7]: > 120 µM (not active) | CC50 [1]: 36.3 µM (active)

CCCCN1C(=N)N([C@@H](CCC)CN2CCC[C@H]2CN2C(N)=NC[C@H]2CC(C)C)C[C@H]1Cc1ccccc1
IC50 [8]: > 20 µM (inactive)

Cc1ccc(NC(S)=Nc2ccc3c[nH]nc3c2)cc1
EC50 [3]: > 112 µM (not active) | EC50 [4]: > 112 µM (not active)

C[C@H]1CN([C@@H](C)CO)C(=O)c2c(c3ccccc3n2C)-c2ccccc2CO[C@H]1CN(C)C(=O)CCC(F)(F)F
AC50 [2]: < 0.26 µM (active) | AC50 [9]: 0.411 µM (active)

CN(C)CC#Cc1ccc([C@H]2[C@H](CO)N3CCCCN(C(=O)CN(C)C)C[C@@H]23)cc1
AC50 [10]: 9.36 µM (active)

Cc1c(C(=O)N(Cc2cccc(Br)c2)C2CCS(=O)(=O)C2)oc2ccccc12 (stereo unspecified)
AC50 [11]: 35.9 µM (active) | AC50 [12]: > 70 µM (inactive)

CCN(CC)CC(C)OC(=O)c1ccccc1Cl (stereo unspecified)
EC50 [3]: > 112 µM (not active) | EC50 [4]: > 112 µM (not active)

c1csc(-c2csc3ncnc(NCCCN4CCOCC4)c23)c1
AC50 [13]: 9.18 µM (active) | AC50 [9]: 4.73 µM (active)

COc1ccc2c3n(nc2c1)CCN=C3c1cc(Cl)c(N)c(Cl)c1
CC50 [1]: 35.5 µM (active)

COc1cc(/C=C2/SC(Nc3ccc(O)cc3)=NC2=O)cc(OC)c1O
IC50 [8]: > 20 µM (inactive)

O[C@@H](c1cc(C(F)(F)F)nc2c(C(F)(F)F)cccc12)[C@H]1CCCCN1
CC50 [1]: 13.5 µM (active) | IC50 [8]: > 20 µM (inactive)

O=C(NC(=S)Nc1cccnc1)c1cc2ccccc2o1
IC50 [14]: > 66 µM (inactive) | IC50 [15]: > 66 µM (inactive)

CCOC(=O)CSc1nc2ccc(N)cc2s1
EC50 [3]: > 112 µM (not active) | EC50 [4]: > 112 µM (not active)

CCC(=O)N1CCN(c2ccc(NC(=S)NC(=O)c3cccc([N+](=O)[O-])c3)cc2)CC1
IC50 [14]: > 66 µM (inactive) | IC50 [15]: > 66 µM (inactive)

CCOC(=O)C1C(c2ccc(OC)c(OC)c2)c2c(n[nH]c2O)CC1(C)O (stereo unspecified)
EC50 [3]: > 112 µM (not active) | EC50 [4]: > 112 µM (not active)

Oc1ccccc1-c1nc(NCCN2CCOCC2)c2ccccc2n1
AC50 [16]: 29.5 µM (active)

C[C@@H]1CN([C@H](C)CO)S(=O)(=O)c2ccc(-c3ccccc3)cc2O[C@@H]1CN(C)Cc1ccccc1
AC50 [2]: 31.8 µM (active)

CN1CCN(c2ccc([N+](=O)[O-])cc2C(=O)c2ccc(Cl)cc2)CC1
EC50 [17]: 5.02 µM (active) | EC50 [18]: 33.7 µM (inconclusive) | EC50 [19]: 11 µM (inconclusive) | EC50 [20]: 4.22 µM (active)

CC(=O)c1cn(S(=O)(=O)c2ccccc2)c2ccccc12
IC50 [8]: > 20 µM (inactive)

CCCCOc1ccc(CNn2c(C)nc3ccccc3c2=O)cc1
IC50 [8]: > 20 µM (inactive) | AC50 [21]: 7.94 µM (inconclusive)

C=CCn1cc(/C=N/Nc2nc3ccccc3[nH]2)c2ccccc21
EC50 [3]: 45.1 µM (active) | EC50 [4]: > 112 µM (not active)

O=C(CSc1nccn(-c2ccc(Br)cc2)c1=O)NC1CCCC1
IC50 [14]: > 66 µM (inactive) | IC50 [15]: > 66 µM (inactive)

CCOC(=O)c1c(NC(=O)c2c(C)noc2C)sc2c1CCCCC2
EC50 [3]: > 112 µM (not active) | EC50 [4]: > 112 µM (not active) | AC50 [22]: 5.01 µM (inconclusive)

CCN1CCCC1CNC(=O)c1cc2c(-c3cccc(OC)c3)nn(C)c2s1 (stereo unspecified)
AC50 [16]: 56.9 µM (active)

Cc1ccn2c(NC3CCCCC3)c(-c3cccc(-c4cccc(Cl)c4)c3)nc2c1
CC50 [1]: > 40 µM (active) | AC50 [23]: 2.85 µM (active)

O=C(O)c1ccccc1SC1CC(=O)N(c2cccc3ccccc23)C1=O (stereo unspecified)
IC50 [14]: > 66 µM (inactive) | IC50 [15]: > 66 µM (inactive)

CC(=O)Nc1ccc(Nc2nc(-c3c(C)nc4ccccn34)cs2)cc1
EC50 [24]: > 120 µM (not active) | EC50 [17]: 2.15 µM (active) | EC50 [25]: 0.227 µM (active) | EC50 [26]: 0.13 µM (active) | EC50 [18]: 70.7 µM (inconclusive) | EC50 [19]: 0.654 µM (inconclusive) | EC50 [20]: 2.86 µM (inconclusive)

COCCCn1c(-c2ccc(S(=O)(=O)N3CCOCC3)cc2)cs/c1=N/c1ccccc1
AC50 [9]: 15.3 µM (active)
